Measurements taken from US7223888B2, “Mu opioid receptor ligands: methods of use and synthesis” (President and Fellows of Harvard College, priority 2002, dated 2007).
Read-outs that look alike come from different tables or passages of the source.

Tests used:
[1] = biological target: T1, KOR (Cavia porcellus, UniProt P41144); assay: Opioid receptor competitive binding assay, KOR (3H-U-69,593); parameters: species or system guinea pig; conditions: for Ki KOR/Ki MOR: Table 12, selectivity for MOR versus KOR
T1 construct: from tissue; host or cells: guinea pig cerebellum preparation
Protocol: (§1) For selected compounds, Ki for MOR, DOR, and KOR were determined according to the following procedure: Recombinant hMOR-1 membrane preps from stably transfected CHO cells and recombinant hDOR-1 membrane preps from stably transfected HEK-293 cells were purchased from Amersham Biosciences. Guinea pig cerebellum preparations were used for KOR assays.
(§2) Each microassay from an assay plate was filtered through an individual well of a Packard GF/B 96-well filter plate (glass fiber filter) to collect the membranes. Each well was washed twice with 200 μL of ice cold wash buffer (50 mM Tris, pH 7.4). The filter plate was allowed to dry overnight, the back was sealed, and Packard Bioscience Microscint PS scintillation fluid (75 μL) was added to each well, which was then counted for ^3H for 2 minutes using a Packard Bioscience TopCount scintillation counter plate reader.
(§3) Each compound was assayed at 8 concentrations, using half-log serial dilutions. Each concentration was tested in triplicate, and the ^3H cpm were averaged.
(§4) This triplicate experiment was repeated three times for the MOR and twice for the DOR and the KOR.

[2] = biological target: T2, hDOR-1 (Homo sapiens, UniProt P41143); assay: Opioid receptor competitive binding assay, DOR; conditions: for Ki DOR/Ki MOR: Table 12, selectivity for MOR versus DOR (3H-DPDPE, hDOR-1)
T2 construct: purchased Amersham Biosciences; host or cells: stably transfected HEK-293 cells (membrane preparation)
Protocol: as §1, §2, §3
(§5) This concentration was determined experimentally by scintillation counting an aliquot of the radioligand stock solution used in the assay.
(§6) Kd=the binding constant for the radioligand.
as §4

[3] = biological target: T3, hMOR-1 (Homo sapiens, UniProt P35372); assay: Opioid receptor competitive binding assay, MOR (3H-DAMGO)
T3 construct: purchased Amersham Biosciences; host or cells: stably transfected CHO cells (membrane preparation)
Protocol: as §1, §2, §3, §5, §6, §4

[4] = Ki KOR, Table 9, 3H-U-69,593, guinea pig cerebellum preps, errors two standard deviations
[5] = Ki DOR, Table 6, footnote:, hDOR-1 stably transfected into HEK-293 cells, errors two standard deviations
[6] = Ki MOR, Table 3, 3H-DAMGO, hMOR-1 stably transfected into CHO cells, errors 95% confidence interval

SMILES	Ki [1, 4]	Ki KOR/Ki MOR [1]	Ki [2, 5]	Ki DOR/Ki MOR [2]	Ki [3, 6]	Ki ([1]; read-out: Ki KOR)	Ki ([2]; read-out: Ki DOR)	Ki ([3]; read-out: Ki MOR)
NC(=O)C(Cc1ccccc1)NC(=O)C(Cc1ccccc1)C(O)/C=C/CC(O)C(N)Cc1ccc(O)cc1 (single isomer, unassigned) [(S,R,S,R)-2, (E)-8-Amino-2-benzyl-3,7-dihydroxy-9-(4-hydroxy-phenyl)-non-4-enoic acid (1-carbamoyl-2-phenyl-ethyl)-amide]	2900 ± 800 nM	18	850 ± 30 nM	5	160 ± 40 nM			
NC(Cc1ccc(O)cc1)C(O)C/C=C/C(O)C(Cc1ccccc1)C(=O)NCCc1ccccc1 (single isomer, unassigned) [(S,S,S,R)-10, (E)-8-Amino-2-benzyl-3,7-dihydroxy-9-(4-hydroxy-phenyl)-non-4-enoic acid phenethyl-amide]	1800 ± 300 nM	86	3600 ± 100 nM	170	21 ± 1 nM			
NC(=O)C(Cc1ccccc1)NC(=O)C(Cc1ccccc1)C(O)/C=C/CC(O)C(N)Cc1ccc(O)cc1 (single isomer, unassigned) [(S,S,R,S)-2, (E)-8-Amino-2-benzyl-3,7-dihydroxy-9-(4-hydroxy-phenyl)-non-4-enoic acid (1-carbamoyl-2-phenyl-ethyl)-amide]	1300 ± 100 nM	16	6900 ± 1300 nM	86	79 ± 23 nM			
NC(=O)C(Cc1ccccc1)NC(=O)C(Cc1ccccc1)C(O)CCCC(O)C(N)Cc1ccc(O)cc1 (single isomer, unassigned) [(S,S,R,R)-6, 8-Amino-2-benzyl-3,7-dihydroxy-9-(4-hydroxy-phenyl)-nonanoic acid (1-carbamoyl-2-phenyl-ethyl)-amide]					95 ± 61 nM	730 ± 270 nM	3000 ± 100 nM	
NC(=O)C(Cc1ccccc1)NC(=O)C(Cc1ccccc1)C(O)CCCC(O)C(N)Cc1ccc(O)cc1 (single isomer, unassigned) [(S,S,S,R)-6, 8-Amino-2-benzyl-3,7-dihydroxy-9-(4-hydroxy-phenyl)-nonanoic acid (1-carbamoyl-2-phenyl-ethyl)-amide]					98 ± 31 nM	3900 ± 1700 nM		
NC(=O)C(Cc1ccccc1)OC(=O)C(Cc1ccccc1)C(O)/C=C/CC(O)C(N)Cc1ccc(O)cc1 [(S,S,S,R)-13, (E)-8-Amino-2-benzyl-3,7-dihydroxy-9-(4-hydroxy-phenyl)-non-4-enoic acid1-carbamoyl-2-phenyl-ethyl ester]					37 ± 8 nM	6000 ± 2100 nM	910 ± 250 nM	
NC(=O)C(Cc1ccccc1)NC(=O)C(Cc1ccccc1)C(O)/C=C\CC(O)C(N)Cc1ccc(O)cc1 (single isomer, unassigned) [(S,R,R,R)-9, (Z)-8-Amino-2-benzyl-3,7-dihydroxy-9-(4-hydroxy-phenyl)-non-4-enoic acid (1-carbamoyl-2-phenyl-ethyl)-amide]	5800 ± 1800 nM	15	9200 ± 2100 nM	23	400 ± 110 nM			
C=CC(O)C(Cc1ccccc1)NC(=O)C(Cc1ccccc1)C(O)/C=C/CC(O)C(N)Cc1ccc(O)cc1 (single isomer, unassigned) [(S,S,R,R)-12, (E)-8-Amino-2-benzyl-3,7-dihydroxy-9-(4-hydroxy-phenyl)-non-4-enoic acid (1-benzyl-2-hydroxy-but-3-enyl)-amide]	770 ± 130 nM	35	620 ± 70 nM	28	22 ± 4 nM			
NC(=O)C(Cc1ccccc1)NC(=O)C(Cc1ccccc1)C(O)/C=C\CC(O)C(N)Cc1ccc(O)cc1 (single isomer, unassigned) [(S,S,S,R)-9, (Z)-8-Amino-2-benzyl-3,7-dihydroxy-9-(4-hydroxy-phenyl)-non-4-enoic acid (1-carbamoyl-2-phenyl-ethyl)-amide]	6100 ± 3000 nM	16	2200 ± 100 nM	6	370 ± 150 nM			
NC(=O)C(Cc1ccccc1)NC(=O)C(Cc1ccccc1)C(O)CCCC(O)C(N)Cc1ccc(O)cc1 (single isomer, unassigned) [(S,R,S,R)-6, 8-Amino-2-benzyl-3,7-dihydroxy-9-(4-hydroxy-phenyl)-nonanoic acid (1-carbamoyl-2-phenyl-ethyl)-amide]						6600 ± 3500 nM	4000 ± 100 nM	190 ± 20 nM
NC(Cc1ccc(O)cc1)C(O)C/C=C/C(O)C(Cc1ccccc1)C(=O)NCCc1ccccc1 (single isomer, unassigned) [(S,R,R,R)-10, (E)-8-Amino-2-benzyl-3,7-dihydroxy-9-(4-hydroxy-phenyl)-non-4-enoic acid phenethyl-amide]	2800 ± 600 nM	53	2900 ± 600 nM	55	53 ± 6 nM			
NC(Cc1ccc(O)cc1)C(O)C/C=C/C(O)C(Cc1ccccc1)C(=O)NC(CO)Cc1ccccc1 (single isomer, unassigned) [(S,S,S,R)-11, (E)-8-Amino-2-benzyl-3,7-dihydroxy-9-(4-hydroxy-phenyl)-non-4-enoic acid (1-hydroxymethyl-2-phenyl-ethyl)-amide]	6000 ± 700 nM	600	1100 ± 100 nM	110	10 ± 2 nM			
NC(=O)C(Cc1ccccc1)NC(=O)C(Cc1ccccc1)C(O)/C=C/CC(O)C(N)Cc1ccc(O)cc1 (single isomer, unassigned) [(S,S,S,R)-2, (E)-8-Amino-2-benzyl-3,7-dihydroxy-9-(4-hydroxy-phenyl)-non-4-enoic acid (1-carbamoyl-2-phenyl-ethyl)-amide]	1300 ± 500 nM	150	510 ± 10 nM	57	8.8 ± 0.7 nM			
NC(Cc1ccc(O)cc1)C(O)C/C=C/C(O)C(Cc1ccccc1)C(=O)NCCc1ccccc1 (single isomer, unassigned) [(S,S,R,R)-10, (E)-8-Amino-2-benzyl-3,7-dihydroxy-9-(4-hydroxy-phenyl)-non-4-enoic acid phenethyl-amide]	3400 ± 300 nM	120	1200 ± 300 nM	42	29 ± 8 nM			
NC(=O)C(Cc1ccccc1)NC(=O)C(Cc1ccccc1)C(O)/C=C/CC(O)C(N)Cc1ccc(O)cc1 (single isomer, unassigned) [(S,R,R,R)-2, (E)-8-Amino-2-benzyl-3,7-dihydroxy-9-(4-hydroxy-phenyl)-non-4-enoic acid (1-carbamoyl-2-phenyl-ethyl)-amide]	1200 ± 100 nM	18	1400 ± 300 nM	21	67 ± 38 nM			
NC(=O)C(Cc1ccccc1)NC(=O)C(Cc1ccccc1)C(O)/C=C\CC(O)C(N)Cc1ccc(O)cc1 (single isomer, unassigned) [(S,R,S,R)-9, (Z)-8-Amino-2-benzyl-3,7-dihydroxy-9-(4-hydroxy-phenyl)-non-4-enoic acid (1-carbamoyl-2-phenyl-ethyl)-amide]	1700 ± 400 nM	7	10000 ± 2000 nM	39	260 ± 70 nM			
NC(=O)C(Cc1ccccc1)NC(=O)C(Cc1ccccc1)C(O)/C=C/CC(O)C(N)Cc1ccc(O)cc1 (single isomer, unassigned) [(S,S,R,R)-2, (E)-8-Amino-2-benzyl-3,7-dihydroxy-9-(4-hydroxy-phenyl)-non-4-enoic acid (1-carbamoyl-2-phenyl-ethyl)-amide]	1200 ± 700 nM	48	1200 ± 100 nM	45	25 ± 5 nM			
NC(Cc1ccc(O)cc1)C(O)C/C=C/C(O)C(Cc1ccccc1)C(=O)NC(CO)Cc1ccccc1 (single isomer, unassigned) [(S,S,R,R)-11, (E)-8-Amino-2-benzyl-3,7-dihydroxy-9-(4-hydroxy-phenyl)-non-4-enoic acid (1-hydroxymethyl-2-phenyl-ethyl)-amide]	2900 ± 400 nM	180	620 ± 80 nM	39	16 ± 1 nM			
NC(=O)C(Cc1ccccc1)NC(=O)C(Cc1ccccc1)C(O)/C=C\CC(O)C(N)Cc1ccc(O)cc1 (single isomer, unassigned) [(S,S,R,R)-9, (Z)-8-Amino-2-benzyl-3,7-dihydroxy-9-(4-hydroxy-phenyl)-non-4-enoic acid (1-carbamoyl-2-phenyl-ethyl)-amide]	1600 ± 100 nM	22	4300 ± 1400 nM	58	74 ± 12 nM			
NC(=O)C(Cc1ccccc1)NC(=O)C(Cc1ccccc1)C(O)CCCC(O)C(N)Cc1ccc(O)cc1 (single isomer, unassigned) [(S,R,R,R)-6, 8-Amino-2-benzyl-3,7-dihydroxy-9-(4-hydroxy-phenyl)-nonanoic acid (1-carbamoyl-2-phenyl-ethyl)-amide]						1500 ± 700 nM		120 ± 30 nM
